From BigSolDB 2.1

COCCOC(=O)C1=C(C)NC(C)=C(C(=O)OC(C)C)C1c1cccc([N+](=O)[O-])c1 (centres undefined)
solubility (mole fraction)
Settings	278.15 K	283.15 K	288.15 K	293.15 K	298.15 K	303.15 K	308.15 K	313.15 K	318.15 K
in THF	0.0141	0.016	0.0181	0.0203	0.0229	0.0259	0.0291	0.0324	0.0366
in acetone	0.012	0.0136	0.0154	0.0171	0.0193	0.0217	0.0241	0.027	0.0295
in acetonitrile	0.00161	0.00191	0.00225	0.00267	0.00311	0.00365	0.00437	0.00503	0.00587
in cyclohexanone	0.0145	0.0164	0.0184	0.021	0.0239	0.0266	0.0297	0.0334	0.0375
in ethanol	0.014	0.0158	0.0176	0.0198	0.0221	0.0247	0.0272	0.0303	0.034
in ethyl acetate	0.00127	0.00145	0.0017	0.00192	0.00221	0.00248	0.0028	0.0032	0.00364
in ethyl formate	0.00152	0.0017	0.00192	0.00218	0.00247	0.00275	0.00305	0.00341	0.00381
in isobutanol	0.00706	0.00811	0.00923	0.0107	0.0122	0.0137	0.0156	0.0179	0.0201
in isopentanol	0.00609	0.00711	0.00815	0.00953	0.011	0.0126	0.0142	0.0166	0.0188
in isopropanol	0.0117	0.0132	0.0147	0.0163	0.0183	0.0204	0.0225	0.0249	0.0278
in methanol	0.0157	0.0178	0.0201	0.0229	0.0259	0.0289	0.0327	0.0364	0.0411
in methyl acetate	0.00456	0.00506	0.00573	0.00647	0.00718	0.00813	0.00898	0.00997	0.0112
in n-butanol	0.0106	0.0117	0.013	0.0145	0.0161	0.0177	0.0195	0.0217	0.0237
in n-pentanol	0.00802	0.00919	0.0103	0.0116	0.0131	0.0145	0.0162	0.018	0.0203
in n-propanol	0.011	0.0123	0.0139	0.0155	0.0173	0.0195	0.0216	0.0241	0.0269
in sec-butanol	0.00977	0.0111	0.0122	0.0134	0.0149	0.0167	0.0181	0.0198	0.022
